Tested on: Candida albicans ATCC 90028
Assay: CFU assay with C. albicans
Type: cell-based
Details: for Estimate (difference between means of log values): control - treatment
Source text: Candida albicans strains: ATCC 90028, CAF-1-2, SC5814, BM4f35II68, vaginal clinical isolates from Dept. of Clincal Microbiology, Skåne University Hospital, SO_303369 and SO_503471. Candida parapsilosis strains: ATCC 90018, BD1800, BD17837, and BM24/68/09. Candida glabrata strains: ATCC 90030, clinical isolates from Dept. of Clincal Microbiology, Skåne University Hospital, SO_3336, SO_3400 and SO_503413. All strains were inoculated from frozen culture and grown in Yeast extract-Peptone-Dextrose (YPD) (Sigma) and on Sabourand Dextrose Broth (SAB) (Difco) plates at 30°C with 5% (v/v) CO2. If not otherwise stated, ATCC 90028 was used for candidacidal experiments.
Candida albicans was grown over night, washed, and resuspended in 10 mM Tris, 5 mM glucose, pH 7.4 or pH 4. Approximately 4×10^3 to 10^4 CFU of C. albicans were incubated with the test substance in low or neutral pH buffer for 4 h at 37°C. After incubation, the suspension was diluted and plated. Colonies were counted after two days incubation of the plates at 30°C. Bacteria from overnight cultures were inoculated in fresh medium and grown for 3 h, washed in 10 mM Tris, 5 mM glucose pH 7.4. Approximately 8×10^4 CFU were incubated with sample in 10 mM Tris, 5 mM glucose pH 7.4 or pH 4 for 1 h at 37°C, diluted, plated and incubated over night at 37°C and the colonies counted.
Statistical analysis was performed using SAS 9.2 software (SAS Institute, Cary, NC). Colony counts were log transformed. In order to choose the statistical method, interactions between the Treatment and Experiment were investigated. Treatments were screened by doing pair wise comparisons of each treatment to a control. Statistical tests used for the comparisons included MIXED procedure and LSMEANS statement. All tests where P-value<.05 were considered to indicate statistical significance. P-values were not adjusted for the multiple comparisons.
“Estimate” is the estimate of the difference between means of log values of treatment 1 and treatment 2

## RIFKKEDCKYI [MSP66–76, eleven residues at the very tip of the loop (residue 66–76)]
50 µM + 50 µM EDTA, pH 7.4, + 50 µM calcium chloride, experiment 1
  Estimate (difference between means of log values): 0.4123
50 µM + 50 µM EDTA, pH 7.4, + 50 µM calcium chloride, experiment 2
  Estimate (difference between means of log values): -0.3545
50 µM + 50 µM EDTA, pH 7.4, + 50 µM calcium chloride, experiment 3
  Estimate (difference between means of log values): -0.7827
50 µM + 50 µM EDTA, pH 7.4, + 50 µM calcium chloride, experiment 4
  Estimate (difference between means of log values): 0.2633
50 µM + 50 µM EDTA, pH 7.4, + 50 µM calcium chloride, experiment 5
  Estimate (difference between means of log values): 0.02251
50 µM + 50 µM EDTA, pH 7.4, + 75 µM calcium chloride, experiment 1
  Estimate (difference between means of log values): 0.2228
50 µM + 50 µM EDTA, pH 7.4, + 75 µM calcium chloride, experiment 2
  Estimate (difference between means of log values): -0.4921
50 µM + 50 µM EDTA, pH 7.4, + 75 µM calcium chloride, experiment 3
  Estimate (difference between means of log values): -0.1876
50 µM + 50 µM EDTA, pH 7.4, + 75 µM calcium chloride, experiment 4
  Estimate (difference between means of log values): -0.2469
50 µM + 50 µM EDTA, pH 7.4, + 75 µM calcium chloride, experiment 5
  Estimate (difference between means of log values): -0.2312
50 µM + 50 µM EDTA, pH 7.4, + 100 µM calcium chloride, experiment 1
  Estimate (difference between means of log values): 0.07455
50 µM + 50 µM EDTA, pH 7.4, + 100 µM calcium chloride, experiment 2
  Estimate (difference between means of log values): -0.1459
50 µM + 50 µM EDTA, pH 7.4, + 100 µM calcium chloride, experiment 3
  Estimate (difference between means of log values): -0.4793
50 µM + 50 µM EDTA, pH 7.4, + 100 µM calcium chloride, experiment 4
  Estimate (difference between means of log values): -0.1979
50 µM + 50 µM EDTA, pH 7.4, + 100 µM calcium chloride, experiment 5
  Estimate (difference between means of log values): -0.3209
50 µM + 50 µM EDTA, pH 7.4, + 200 µM calcium chloride, experiment 1
  Estimate (difference between means of log values): 0.4296
50 µM + 50 µM EDTA, pH 7.4, + 200 µM calcium chloride, experiment 2
  Estimate (difference between means of log values): -0.6341
50 µM + 50 µM EDTA, pH 7.4, + 200 µM calcium chloride, experiment 3
  Estimate (difference between means of log values): -0.7050
50 µM + 50 µM EDTA, pH 7.4, + 200 µM calcium chloride, experiment 4
  Estimate (difference between means of log values): -0.2560
50 µM + 50 µM EDTA, pH 7.4, + 200 µM calcium chloride, experiment 5
  Estimate (difference between means of log values): 0.04894
50 µM + 50 µM EDTA, pH 7.4, no calcium, experiment 1
  Estimate (difference between means of log values): 5.2769
50 µM + 50 µM EDTA, pH 7.4, no calcium, experiment 2
  Estimate (difference between means of log values): 4.2266
50 µM + 50 µM EDTA, pH 7.4, no calcium, experiment 3
  Estimate (difference between means of log values): 2.8351
50 µM + 50 µM EDTA, pH 7.4, no calcium, experiment 4
  Estimate (difference between means of log values): 4.2317
50 µM + 50 µM EDTA, pH 7.4, no calcium, experiment 5
  Estimate (difference between means of log values): 5.0824
50 µM, no EDTA, pH 4, + 50 µM calcium chloride, experiment 1
  Estimate (difference between means of log values): 2.5872
50 µM, no EDTA, pH 4, + 50 µM calcium chloride, experiment 2
  Estimate (difference between means of log values): 2.7886
50 µM, no EDTA, pH 4, + 50 µM calcium chloride, experiment 3
  Estimate (difference between means of log values): 1.3256
50 µM, no EDTA, pH 4, + 50 µM calcium chloride, experiment 4
  Estimate (difference between means of log values): 2.0744
50 µM, no EDTA, pH 4, + 50 µM calcium chloride, experiment 5
  Estimate (difference between means of log values): 1.7552
50 µM, no EDTA, pH 4, + 75 µM calcium chloride, experiment 1
  Estimate (difference between means of log values): 2.5170
50 µM, no EDTA, pH 4, + 75 µM calcium chloride, experiment 2
  Estimate (difference between means of log values): 1.9220
50 µM, no EDTA, pH 4, + 75 µM calcium chloride, experiment 3
  Estimate (difference between means of log values): -0.3426
50 µM, no EDTA, pH 4, + 75 µM calcium chloride, experiment 4
  Estimate (difference between means of log values): 1.5746
50 µM, no EDTA, pH 4, + 75 µM calcium chloride, experiment 5
  Estimate (difference between means of log values): 1.0684
50 µM, no EDTA, pH 4, + 100 µM calcium chloride, experiment 1
  Estimate (difference between means of log values): 0.6973
50 µM, no EDTA, pH 4, + 100 µM calcium chloride, experiment 2
  Estimate (difference between means of log values): 1.1772
50 µM, no EDTA, pH 4, + 100 µM calcium chloride, experiment 3
  Estimate (difference between means of log values): 0.01412
50 µM, no EDTA, pH 4, + 100 µM calcium chloride, experiment 4
  Estimate (difference between means of log values): 1.0688
50 µM, no EDTA, pH 4, + 100 µM calcium chloride, experiment 5
  Estimate (difference between means of log values): 0.1005
50 µM, no EDTA, pH 4, + 200 µM calcium chloride, experiment 1
  Estimate (difference between means of log values): 1.0661
50 µM, no EDTA, pH 4, + 200 µM calcium chloride, experiment 2
  Estimate (difference between means of log values): 0.6082
50 µM, no EDTA, pH 4, + 200 µM calcium chloride, experiment 3
  Estimate (difference between means of log values): -0.8572
50 µM, no EDTA, pH 4, + 200 µM calcium chloride, experiment 4
  Estimate (difference between means of log values): 0.6184
50 µM, no EDTA, pH 4, + 200 µM calcium chloride, experiment 5
  Estimate (difference between means of log values): -1.1924
50 µM, no EDTA, pH 4, no calcium, experiment 1
  Estimate (difference between means of log values): 5.4425
50 µM, no EDTA, pH 4, no calcium, experiment 2
  Estimate (difference between means of log values): 4.7863
50 µM, no EDTA, pH 4, no calcium, experiment 3
  Estimate (difference between means of log values): 3.5454
50 µM, no EDTA, pH 4, no calcium, experiment 4
  Estimate (difference between means of log values): 4.0909
50 µM, no EDTA, pH 4, no calcium, experiment 5
  Estimate (difference between means of log values): 3.8004
140 µM + 0.5 mM calcium, pH 4, experiment 1
  Estimate (difference between means of log values): 1.0371
140 µM + 0.5 mM calcium, pH 4, experiment 2
  Estimate (difference between means of log values): 0.7970
140 µM + 0.5 mM calcium, pH 4, experiment 3
  Estimate (difference between means of log values): -0.5619
140 µM + 0.5 mM calcium, pH 4, experiment 4
  Estimate (difference between means of log values): 0.4135
140 µM + 0.5 mM magnesium, pH 4, experiment 1
  Estimate (difference between means of log values): 5.4081
140 µM + 0.5 mM magnesium, pH 4, experiment 2
  Estimate (difference between means of log values): 4.1263
140 µM + 0.5 mM magnesium, pH 4, experiment 3
  Estimate (difference between means of log values): 2.8985
140 µM + 0.5 mM magnesium, pH 4, experiment 4
  Estimate (difference between means of log values): 5.0596
140 µM, pH 4, experiment 1
  Estimate (difference between means of log values): 5.5432
140 µM, pH 4, experiment 2
  Estimate (difference between means of log values): 4.1263
140 µM, pH 4, experiment 3
  Estimate (difference between means of log values): 2.8985
140 µM, pH 4, experiment 4
  Estimate (difference between means of log values): 4.7326
Neutral pH (MSP66–76 with equimolar EDTA)
  Calcium concentration that completely inhibited the antifungal activity: 50 µM

Source: article PMC3320615, “β-Microseminoprotein Endows Post Coital Seminal Plasma with Potent Candidacidal Activity by a Calcium- and pH-Dependent Mechanism” (PLoS Pathogens, 2012)
